Data set [1] is described as follows: Stability of the compound in DMEM assessed as compound remaining after 40 mins by RP-HPLC analysis in presence of fetal bovine serum. The data set is classed as physicochemical. The note with it: cattle, DMEM with fetal bovine serum; read-out: Stability.
The nature of data set [2]: Half life in human HeLa cell cytosolic extract by RP-HPLC analysis. It counts as ADME, cell-based, Cytosol.
Data set [3] in a line: Half life in DMEM by RP-HPLC analysis in presence of fetal bovine serum. It counts as ADME. The note with it: cattle, DMEM with fetal bovine serum.

Structures are written as SMILES.

Usually half-life stands for the time in which the quantity being followed falls by half. As to `CO[C@@H]1[C@H](O)[C@@H](COP(=O)([O-])OP(=O)(O)CP(=O)(O)OC[C@H]2O[C@@H](n3c[n+](C)c4c(=O)[nH]c(N(C)C)nc43)[C@H](O)[C@@H]2O)O[C@H]1n1cnc2c(N)ncnc21`, the remaining at 40 min in data set [1] turned out to be 35%. Besides, the half-life was 10 h in data set [2] and 0.367 h in data set [3].

As for `CO[C@@H]1[C@H](O)[C@@H](COP(=O)(O)OP(=O)([O-])OP(=O)(O)OC[C@H]2O[C@@H](n3c[n+](C)c4c(=O)[nH]c(N(C)C)nc43)[C@H](O)[C@@H]2O)O[C@H]1n1cnc2c(N)ncnc21`, the remaining at 40 min in data set [1] was determined as 15%. Further, the results for the half-life in data set [2] and in data set [3] were 10 h and 0.217 h, respectively.

For the compound `CO[C@@H]1[C@H](O)[C@@H](COP(=O)(O)CP(=O)(O)OP(=O)([O-])OC[C@H]2O[C@@H](n3c[n+](C)c4c(=O)[nH]c(N(C)C)nc43)[C@H](O)[C@@H]2O)O[C@H]1n1cnc2c(N)ncnc21`, the remaining at 40 min in data set [1] turned out to be 52%. Further, the results for the half-life in data set [2] and in data set [3] were 120 h and 0.583 h, respectively.

Source of the values: ChEMBL document CHEMBL3091282, “Synthesis and evaluation of stability of m3G-CAP analogues in serum-supplemented medium and cytosolic extract” (Bioorg Med Chem, 2013).
